From patent US11014895B2, “Heterocyclic urea compound, and drug composition and application thereof” (CHINA PHARMACEUTICAL UNIVERSITY, priority 2017, dated 2021)

How the values were obtained:
IDO1 enzyme = IDO1 enzyme (Homo sapiens, UniProt P14902); assay: Determination of biochemical activity of IDO1 enzyme (absorbance at 320 nm); conditions: room temperature, 3 hours
How it was run: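 Enzyme and compound were reacted in sodium hydrogen phosphate buffer (pH 7-8) for 3 hours at room temperature. Absorbance at 320 nm gave inhibition rate, and IC50 was calculated from it.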

[1] = target: T1, IDO1 enzyme in the Hela cell (Homo sapiens, UniProt P14902); assay: Cell activity: interferon γ-stimulated Hela cells, absorbance of supernatant at 480 nm; format: cell-based; conditions: interferon γ 100 ng/ml, 72 hours
T1 construct: endogenous in cells; host or cells: HeLa cells stimulated with interferon γ (100 ng/ml)
T1 sequence (P14902 whole entry): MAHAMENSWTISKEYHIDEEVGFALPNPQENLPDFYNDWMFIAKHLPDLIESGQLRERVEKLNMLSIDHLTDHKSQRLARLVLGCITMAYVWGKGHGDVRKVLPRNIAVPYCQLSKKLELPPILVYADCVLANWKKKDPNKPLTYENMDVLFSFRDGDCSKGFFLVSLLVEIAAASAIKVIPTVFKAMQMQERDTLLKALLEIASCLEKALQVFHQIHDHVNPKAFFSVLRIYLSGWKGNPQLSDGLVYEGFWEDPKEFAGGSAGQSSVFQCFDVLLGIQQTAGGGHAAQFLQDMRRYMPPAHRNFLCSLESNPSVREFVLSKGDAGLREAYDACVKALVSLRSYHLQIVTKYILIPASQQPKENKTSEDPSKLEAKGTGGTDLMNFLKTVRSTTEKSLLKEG
How it was run: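 HeLa cells treated with compound plus interferon γ (100 ng/ml final) and cultured 72 h at 37 °C. Supernatant treated with trichloroacetic acid 30 min at 50 °C, centrifuged, then mixed with 2% dimethylaminobenzaldehyde in acetic acid; absorbance read at 480 nm.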

IDO1 enzyme, sequence (P14902 whole entry): as above

| IC50 (IDO1 enzyme) [µM] | IC50 [1] [µM] | SMILES |
| --- | --- | --- |
| 0.1 to 1 | 0.1 to 1 | O=C(Nc1nocc1/C(=N/O)Nc1ccc(F)c(Br)c1)NC1CCC(O)CC1 (centres unmarked) [Embodiment 84, (Z)-1-(4-(N-(3-bromo-4-fluorophenyl)-N′-hydroxyaminoiminomethyl)-isoxazole-3-substituted)-3-(4-hydroxycyclohexyl)urea] |
| > 1 | > 1 | N=C(Nc1nonc1/C(=N/O)Nc1ccc(F)c(Br)c1)NC1CC1 [Embodiment 149, (Z)-1-(4-(N-(3-bromo-4-fluorophenyl)-N′-hydroxyaminoiminomethyl)-1,2,5-oxadiazole-3-substituted)-3-(cyclopropyl)guanidine] |
| < 0.001 | < 0.001 | NCCNC(=O)Nc1nocc1/C(=N/O)Nc1ccc(F)c(Br)c1 [Embodiment 90, (Z)-1-(4-(N-(3-bromo-4-fluorophenyl)-N′-hydroxyaminoiminomethyl)-isoxazole-3-substituted)+3-(2-aminoethyl)urea] |
| 0.1 to 1 | 0.1 to 1 | NCCNC(=S)Nc1nonc1/C(=N/O)Nc1ccc(F)c(Br)c1 [Embodiment 129, (Z)-1-(4-(N-(3-bromo-4-fluorophenyl)-N′-hydroxyaminoiminomethyl)-1,2,5-oxadiazole-3-substituted)-3-(2-aminoethyl)thiourea] |
| < 0.001 | < 0.001 | N=C(Nc1nonc1/C(=N/O)Nc1ccc(F)c(Br)c1)NC1CCNCC1 [Embodiment 148, (Z)-1-(4-(N-(3-bromo-4-fluorophenyl)-N′-hydroxyaminoiminomethyl)-1,2,5-oxadiazole-3-substituted)-3-(piperidine-4-substituted)guanidine] |
| < 0.001 | < 0.001 | O/N=C(\Nc1ccc(F)c(Br)c1)c1nonc1NC(=S)Nc1ccc(O)cc1 [Embodiment 117, (Z)-1-(4-(N-(3-bromo-4-fluorophenyl)-N′-hydroxyaminoiminomethyl)-1,2,5-oxadiazole-3-substituted)-3-(4-hydroxyphenyl)thiourea] |
| < 0.001 | < 0.001 | NC1CCC(NC(=O)Nc2nocc2/C(=N/O)Nc2ccc(F)c(Br)c2)CC1 (centres unmarked) [Embodiment 87, (Z)-1-(4-(N-(3-bromo-4-fluorophenyl)-N′-hydroxyaminoiminomethyl)-isoxazole-3-substituted)-3-(4-aminocyclohexyl)urea] |
| 0.1 to 1 | 0.1 to 1 | O=C(Nc1nocc1/C(=N/O)Nc1ccc(F)c(Cl)c1)NC1CCCCC1 [Embodiment 99, (Z)-1-(4-(N-(3-chloro-4-fluorophenyl)-N′-hydroxyaminoiminomethyl)-isoxazole-3-substituted)-3-(cyclohexyl)urea] |
| 0.1 to 1 | 0.1 to 1 | O=C(Nc1nocc1/C(=N/O)Nc1ccc(F)c(Br)c1)NC1CCCCC1 [Embodiment 82, (Z)-1-(4-(N-(3-bromo-4-fluorophenyl)-N′-hydroxyaminoiminomethyl)-isoxazole-3-substituted)-3-(cyclohexyl)urea] |
| 0.1 to 1 | 0.1 to 1 | CCCNC(=O)Nc1nocc1/C(=N/O)Nc1ccc(F)c(Br)c1 [Embodiment 91, (Z)-1-(4-(N-(3-bromo-4-fluorophenyl)-N′-hydroxyaminoiminomethyl)-isoxazole-3-substituted)-3-(propyl)urea] |
| 0.1 to 1 | 0.1 to 1 | O/N=C(\Nc1ccc(F)c(Br)c1)c1cocc1NC(=S)Nc1ccccc1 [Embodiment 137, (Z)-1-(4-(N-(3-bromo-4-fluorophenyl)-N′-hydroxyaminoiminomethyl)-furan-3-substituted)-3-phenylthiourea] |
| > 1 | > 1 | O/N=C(\Nc1ccc(F)c(Br)c1)c1nonc1NC(=S)NC1CC1 [Embodiment 125, (Z)-1-(4-(N-(3-bromo-4-fluorophenyl)-N′-hydroxyaminoiminomethyl)-1,2,5-oxadiazole-3-substituted)-3-(cyclopropyl)thiourea] |
| 0.1 to 1 | 0.1 to 1 | O/N=C(\Nc1ccc(F)c(Br)c1)c1conc1NC(=S)NC1CCCCC1 [Embodiment 135, (Z)-1-(4-(N-(3-bromo-4-fluorophenyl)-N′-hydroxyaminoiminomethyl)-isoxazole-3-substituted)-3-(cyclohexyl)thiourea] |
| < 0.001 | < 0.001 | O=C(Nc1conc1/C(=N/O)Nc1ccc(F)c(Br)c1)NC1CCNCC1 [Embodiment 106] |
| 0.1 to 1 | 0.1 to 1 | O=C(Nc1cccnc1)Nc1cocc1/C(=N/O)Nc1ccc(F)c(Br)c1 [Embodiment 75, (Z)-1-(4-(N-(3-bromo-4-fluorophenyl)-N′-hydroxyaminoiminomethyl)-furan-3-substituted)-3-(3-aminopyridine)urea] |

Second part, the molecule before the results:

| SMILES | IC50 (IDO1 enzyme) [µM] | IC50 [1] [µM] |
| --- | --- | --- |
| O=C(Nc1nonc1/C(=N/O)Nc1ccc(F)c(Br)c1)Nc1cccc2[nH]ccc12 [Embodiment 34, (Z)-1-(4-(N-(3-bromo-4-fluorophenyl)-N′-hydroxyaminoiminomethyl)-1,2,5-oxadiazole-3-substituted)-3-(1H-indole-4-substituted)urea] | 0.1 to 1 | 0.1 to 1 |
| O=C(Nc1nonc1/C(=N/O)Nc1ccc(F)c(Br)c1)NC1CCCC1 [Embodiment 8, (Z)-1-(4-(N-(3-bromo-4-fluorophenyl)-N′-hydroxyaminoiminomethyl)-1,2,5-oxadiazole-3-substituted)-3-cyclopentylurea] | 0.1 to 1 | 0.1 to 1 |
| NS(=O)(=O)NCCNC(=O)Nc1nonc1/C(=N/O)Nc1ccc(F)c(Cl)c1 [Embodiment 30] | < 0.001 | < 0.001 |
| COc1ccc(NC(=O)Nc2nonc2/C(=N/O)Nc2ccc(F)c(Br)c2)cc1 [Embodiment 1, (Z)-1-(4-(N-(3-bromo-4-fluorophenyl)-N′-hydroxyaminoiminomethyl)-1,2,5-oxadiazole-3-substituted)-3-(4-methoxyphenyl)urea] | 0.1 to 1 | 0.1 to 1 |
| NCCCNC(=O)Nc1cocc1/C(=N/O)Nc1ccc(F)c(Br)c1 [Embodiment 67, (Z)-1-(4-(N-(3-bromo-4-fluorophenyl)-N′-hydroxyaminoiminomethyl)-furan-3-substituted)-3-(3-aminopropyl)urea] | 0.1 to 1 | 0.1 to 1 |
| O=C(Nc1nonc1/C(=N/O)Nc1ccc(F)c(Br)c1)NC1CC1 [Embodiment 32, (Z)-1-(4-(N-(3-bromo-4-fluorophenyl)-N′-hydroxyaminoiminomethyl)-1,2,5-oxadiazole-3-substituted)-3-cyclopropylurea] | 0.1 to 1 | 0.1 to 1 |
| O=C(Nc1ccoc1)Nc1nonc1/C(=N/O)Nc1ccc(F)c(Br)c1 [Embodiment 41, (Z)-1-(4-(N-(3-bromo-4-fluorophenyl)-N′-hydroxyaminoiminomethyl)-1,2,5-oxadiazole-3-substituted)-3-(furan-3-substituted)urea] | 0.1 to 1 | 0.1 to 1 |
| O=C(Nc1ccncc1)Nc1nonc1/C(=N/O)Nc1ccc(F)c(Br)c1 [Embodiment 35] | 0.1 to 1 | 0.1 to 1 |
| O=C(NCCCO)Nc1nonc1/C(=N/O)Nc1ccc(F)c(Br)c1 [Embodiment 13, (Z)-1-(4-(N-(3-bromo-4-fluorophenyl)-N′-hydroxyaminoiminomethyl)-1,2,5-oxadiazole-3-substituted)-3-(3-hydroxypropane)urea] | < 0.001 | < 0.001 |
| COc1ccc(NC(=O)Nc2nonc2/C(=N/O)Nc2ccc(F)c(Cl)c2)cc1 [Embodiment 22, (Z)-1-(4-(N-(3-chloro-4-fluorophenyl)-N′-hydroxyaminoiminomethyl)-1,2,5-oxadiazole-3-substituted)-3-(4-methoxyphenyl)urea] | 0.1 to 1 | 0.1 to 1 |
| NS(=O)(=O)N1CCN(C(=O)Nc2nonc2/C(=N/O)Nc2ccc(F)cc2)CC1 [Embodiment 56] | < 0.001 | < 0.001 |
| O=C(Nc1cocc1/C(=N/O)Nc1ccc(F)c(Br)c1)NC1CCCC1 [Embodiment 62, (Z)-1-(4-(N-(3-bromo-4-fluorophenyl)-N′-hydroxyaminoiminomethyl)-furan-3-substituted)-3-cyclopentylurea] | 0.1 to 1 | 0.1 to 1 |
| O=C(Nc1nonc1/C(=N/O)Nc1ccc(F)c(Br)c1)NC1CCNCC1 [Embodiment 11, (Z)-1-(4-(N-(3-bromo-4-fluorophenyl)-N′-hydroxyaminoiminomethyl)-1,2,5-oxadiazole-3-substituted)-3-(piperidine-4-substituted)urea] | < 0.001 | < 0.001 |
| O=C(Nc1nonc1/C(=N/O)Nc1ccc(F)cc1)NC1CCCCC1 [Embodiment 52, (Z)-1-(4-(N-(4-fluorophenyl)-N′-hydroxyaminoiminomethyl)-1,2,5-oxadiazole-3-substituted)-3-cyclohexylurea] | 0.1 to 1 | 0.1 to 1 |
| O=C(Nc1ccc(O)cc1)Nc1nonc1/C(=N/O)Nc1ccc(F)c(Cl)c1 [Embodiment 23] | < 0.001 | < 0.001 |
| O=C(Nc1nonc1/C(=N/O)Nc1ccc(F)c(Br)c1)NC1CCCCCC1 [Embodiment 33, (Z)-1-(4-(N-(3-bromo-4-fluorophenyl)-N′-hydroxyaminoiminomethyl)-1,2,5-oxadiazole-3-substituted)-3-cycloheptylurea] | 0.1 to 1 | 0.1 to 1 |
| COc1cccc(NC(=O)Nc2cocc2/C(=N/O)Nc2ccc(F)c(Br)c2)c1 [Embodiment 59, (Z)-1-(4-(N-(3-bromo-4-fluorophenyl)-N′-hydroxyaminoiminomethyl)-furan-3-substituted)-3-(3-methoxyphenyl)urea] | > 1 | > 1 |
| O=C(Nc1nonc1/C(=N/O)Nc1ccc(F)cc1)NC1CCC(O)CC1 (centres unmarked) [Embodiment 55] | < 0.001 | < 0.001 |
| O=C(Nc1cocc1/C(=N/O)Nc1ccc(F)c(Br)c1)NC1CCCCC1 [Embodiment 61, (Z)-1-(4-(N-(3-bromo-4-fluorophenyl)-N′-hydroxyaminoiminomethyl)-furan-3-substituted)-3-cyclohexylurea] | 0.1 to 1 | 0.1 to 1 |
